Data: patent publication US10213428B2, “(4-((3R,4R)-3-methoxytetrahydro-pyran-4-ylamino)piperidin-1-yl)(5-methyl-6-(((2R,6S)-6-(p-tolyl)tetrahydro-2H-pyran-2-yl)methylamino)pyrimidin-4-yl)methanone citrate” (Centrexion Therapeutics Corporation, priority 2015, dated 2019)
“Also recorded” adds a separate entry of the source.

Assays:
[1] = ThermoGravimetry (loss on drying); type: physicochemical; details: TG
Text: Thermal gravimetry data were collected with a TG instrument from the Q-series of TA Instruments. This method measures weight changes in a material as a function of temperature under a controlled atmosphere.

[2] = Dynamic vapour sorption (sorption isotherms, water uptake); type: physicochemical; details: for hygroscopic behavior: uptake of water: 25° C., citrate
Text: Sorption isotherms were generated using an IGAsorp water sorption monitor from Hiden Isochema. […] For BR salt form only: Sorption isotherms were registered on a DVS-1 water sorption monitor from Surface Measurement Systems.

[3] = Solubility, automated shake flask method with UV quantitation; type: physicochemical; details: for solubility at 2 h / solubility at 4 h / solubility at 6 h: thermodynamic from solid, room temperature
Procedure: Solubility was determined using an automated shake flask method (at room temperature) and quantitation of the dissolved drug substance was determined by UV-spectroscopy within this automated setup.

[4] = Oral pharmacokinetics in rat; type: in vivo, Wistar(Han) rats; details: oral dose 20 μmol/kg of citrate salt 1, mean values
Text: The pharmacokinetics of the test compound following single intravenous (IV) or oral (PO) doses were examined in • female BALB/c mice (average weight: 25 g) • male Wistar(Han) rats (average weight: 260 g) • male and female Göttingen Minipigs (average weight: 24 kg) • male beagle dogs (average weight: 15 kg) All non-rodent species were fasted overnight prior to dosing, while mice and rats had food and water available ad libitum. The p.o. dose of the compound was usually administered as suspension in 0.5% Natrosol or as a 0.5% Natrosol/0.015% Tween 80 suspension. For i.v. dosing purposes, the doses were applied as a solution in 0.9% NaCL, or as a solution containing 9.1% HP-beta Cyclodextrin in water.
Blood was collected by venous sampling and soaking of the blood in EDTA coated tubes. Samples were collected for up to 48 h after administration of the test compound. Plasma was then separated by centrifugation (5 min by approximately 9000 g at 4° C.). For determination of the test compound, plasma was transferred into PCR plates. All samples were stored at approximately −20° C. until bioanalytics. The test compound concentrations in plasma were determined by HPLC MS/MS. The lower limit of quantification was between 0.5 nmol/L and 1 nmol/L.

[5] = X-ray powder diffraction: crystallinity and polymorphism; type: physicochemical; details: for indications for polymorphism: several crystallization experiments
Text: X-ray powder diagrams were generated using a STOE-STADI P-diffractometer in transmission mode fitted with a MYTHEN-detector and a Cu-anode as X-ray source with monochromatic CuKα1 radiation (λ=1.54056 Å, 40 kV, 40 mA).

[6] = male, Wistar(Han), plasma, 20 umol/kg
[7] = listed as Citrate salt, citrate

Structure (SMILES): CO[C@H]1COCC[C@H]1NC1CCN(C(=O)c2ncnc(NC[C@H]3CCC[C@@H](c4ccc(C)cc4)O3)c2C)CC1.O=C(O)CC(O)(CC(=O)O)C(=O)O [citrate salt 1, (4-((3R,4R)-3-methoxytetrahydro-pyran-4-ylamino)piperidin-1-yl)(5-methyl-6-(((2R,6S)-6-(p-tolyl)tetrahydro-2H-pyran-2-yl)methylamino)pyrimidin-4-yl)methanone citrate]
- loss on drying [1]: 1.6%
- physical state after sorption experiment / at higher relative humidity ([2]; higher relative humidity, other salts starting at 60-70% relative humidity): still remains as solid material
- hygroscopic behavior: uptake of water ([2]; up to 80% r.h. (humidity range 10-80%)): 2.6%
- hygroscopic behavior: uptake of water ([2]; up to 80% r.h. (humidity range 10-80%), listed as Citrate salt): 2.6%
- hygroscopic behavior: uptake of water ([2]; up to 80% r.h. (humidity range 10-80%), listed as citrate): 2.6%
- hygroscopic behavior: uptake of water ([2]; up to 90% r.h.): 3.4%
- hygroscopic behavior: uptake of water ([2]; up to 90% r.h., listed as Citrate salt): 3.4%
- solubility at 2 h ([3]; Sörensen buffer, aqueous buffer, Sörensen pH 10, 2 h): > 1000 µg/mL
- solubility at 4 h ([3]; Sörensen buffer, aqueous buffer, Sörensen pH 10, 4 h): > 1000 µg/mL
- solubility at 6 h ([3]; Sörensen buffer, aqueous buffer, Sörensen pH 10, 6 h): > 1000 µg/mL
- Solubility in aqueous media (in words) ([3]; acidic, neutral and basic aqueous media): highly soluble
- solubility at 2 h ([3]; aqueous buffer, 0.1N NaOH, 2 h): > 1000 µg/mL
- solubility at 4 h ([3]; aqueous buffer, 0.1N NaOH, 4 h): > 1000 µg/mL
- solubility at 6 h ([3]; aqueous buffer, 0.1N NaOH, 6 h): > 1000 µg/mL
- solubility at 2 h ([3]; aqueous buffer, KH2PO4-buffer pH 7.4, 2 h): > 1000 µg/mL
- solubility at 4 h ([3]; aqueous buffer, KH2PO4-buffer pH 7.4, 4 h): > 1000 µg/mL
- solubility at 6 h ([3]; aqueous buffer, KH2PO4-buffer pH 7.4, 6 h): > 1000 µg/mL
- solubility at 2 h ([3]; aqueous buffer, McIlvaine buffer pH 2.2, 2 h): > 1000 µg/mL
- solubility at 4 h ([3]; aqueous buffer, McIlvaine buffer pH 2.2, 4 h): > 1000 µg/mL
- solubility at 6 h ([3]; aqueous buffer, McIlvaine buffer pH 2.2, 6 h): > 1000 µg/mL
- solubility at 2 h ([3]; aqueous buffer, McIlvaine buffer pH 3.0, 2 h): > 1000 µg/mL
- solubility at 4 h ([3]; aqueous buffer, McIlvaine buffer pH 3.0, 4 h): > 1000 µg/mL
- solubility at 6 h ([3]; aqueous buffer, McIlvaine buffer pH 3.0, 6 h): > 1000 µg/mL
- solubility at 2 h ([3]; aqueous buffer, McIlvaine buffer pH 4.0, 2 h): > 1000 µg/mL
- solubility at 4 h ([3]; aqueous buffer, McIlvaine buffer pH 4.0, 4 h): > 1000 µg/mL
- solubility at 6 h ([3]; aqueous buffer, McIlvaine buffer pH 4.0, 6 h): > 1000 µg/mL
- solubility at 4 h ([3]; aqueous buffer, McIlvaine buffer pH 4.5, 4 h): > 1000 µg/mL
- solubility at 6 h ([3]; aqueous buffer, McIlvaine buffer pH 4.5, 6 h): > 1000 µg/mL
- solubility at 2 h ([3]; aqueous buffer, McIlvaine buffer pH 5.0, 2 h): > 1000 µg/mL
- solubility at 4 h ([3]; aqueous buffer, McIlvaine buffer pH 5.0, 4 h): > 1000 µg/mL
- solubility at 6 h ([3]; aqueous buffer, McIlvaine buffer pH 5.0, 6 h): > 1000 µg/mL
- solubility at 2 h ([3]; aqueous buffer, McIlvaine buffer pH 6.0, 2 h): > 1000 µg/mL
- solubility at 4 h ([3]; aqueous buffer, McIlvaine buffer pH 6.0, 4 h): > 1000 µg/mL
- solubility at 6 h ([3]; aqueous buffer, McIlvaine buffer pH 6.0, 6 h): > 1000 µg/mL
- solubility at 2 h ([3]; aqueous buffer, McIlvaine buffer pH 6.8, 2 h): > 1000 µg/mL
- solubility at 4 h ([3]; aqueous buffer, McIlvaine buffer pH 6.8, 4 h): > 1000 µg/mL
- solubility at 6 h ([3]; aqueous buffer, McIlvaine buffer pH 6.8, 6 h): > 1000 µg/mL
- solubility at 2 h ([3]; aqueous buffer, McIlvaine buffer pH 7.4, 2 h): > 1000 µg/mL
- solubility at 4 h ([3]; aqueous buffer, McIlvaine buffer pH 7.4, 4 h): > 1000 µg/mL
- solubility at 6 h ([3]; aqueous buffer, McIlvaine buffer pH 7.4, 6 h): > 1000 µg/mL
- solubility at 2 h ([3]; organic solvent or mixture, EtOH, 2 h): 9200 µg/mL
- solubility at 4 h ([3]; organic solvent or mixture, EtOH, 4 h): 9800 µg/mL
- solubility at 6 h ([3]; organic solvent or mixture, EtOH, 6 h): 10000 µg/mL
- solubility at 2 h ([3]; simulated gastric fluid, 0.01N HCl, 2 h): > 1000 µg/mL
- solubility at 4 h ([3]; simulated gastric fluid, 0.01N HCl, 4 h): > 1000 µg/mL
- solubility at 6 h ([3]; simulated gastric fluid, 0.01N HCl, 6 h): > 1000 µg/mL
- solubility at 2 h ([3]; simulated gastric fluid, 0.1N HCl, 2 h): > 1000 µg/mL
- solubility at 4 h ([3]; simulated gastric fluid, 0.1N HCl, 4 h): > 1000 µg/mL
- solubility at 6 h ([3]; simulated gastric fluid, 0.1N HCl, 6 h): > 1000 µg/mL
- solubility at 2 h ([3]; Water, 2 h): > 1000 µg/mL
- solubility at 4 h ([3]; Water, 4 h): > 1000 µg/mL
- solubility at 6 h ([3]; Water, 6 h): > 1000 µg/mL
- AUC(0-inf) [4, 6]: 1.71 µM·h
- Cmax [4, 6]: 454 nM
- Tmax [4, 6]: 1.08 h
- MRTtot [4]: 3.3 h
- crystallinity ([5]; listed as Citrate salt 1, citrate): highly crystalline
- crystallinity [5, 7]: high
- indications for polymorphism [5, 7]: no
- indications for polymorphism ([5]; listed as citrate, citrate): Only one crystalline form; also recorded: only one polymorphic form
